Reference: publication PMC4850295, “Using a Genetically Encoded Sensor to Identify Inhibitors of Toxoplasma gondii Ca^2+ Signaling” (The Journal of Biological Chemistry, 2016)
Several values for one entry are separate records, joined by “and”; a condition that tells them apart may be missing. Equal entries are not always repeated.

What follows are molecules tested on T1, GCaMP5-expressing T. gondii. Conditions: 100 uM zaprinast stimulation, 10 min pretreatment, mean of two replicates, 0.23 h, 10 µM.
T1 construct: whole extracellular parasites expressing GCaMP5 Ca2+ sensor
Parameters: species or system GCaMP5-expressing Toxoplasma gondii, extracellular; GCaMP5 fluorescence (cytosolic Ca2+) after 100 uM zaprinast in compound-pretreated extracellular parasites, background-subtracted, relative to zaprinast alone
Method in brief: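 Read-out is GCaMP5 calcium fluorescence (ex 485/em 525 nm) taken 4 min after 100 μM zaprinast at 37 °C, following 10 min compound pretreatment at 10 μM in duplicate biological replicates. Values are basal-subtracted fold change versus zaprinast-only controls; parasites held extracellular in Ringer's solution.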
In the case of `CCn1c(-c2nonc2N)nc2ccccc21` [SB-693162], the “fold change in fluorescence relative to zaprinast alone” value was 0.7593 and 1.139. For `Fc1ccc(-c2nc3n(c2-c2ccncc2)CCS3)cc1` [SKF-86002], the “fold change in fluorescence relative to zaprinast alone” value was 1.092. `NS(=O)(=O)c1cccc(Nc2cc(-c3ccc(F)cc3)n[nH]2)c1` [GW824645A] was tested, and the “fold change in fluorescence relative to zaprinast alone” value was 1.167 and 1.492. `CS(=O)(=O)CCNCc1ccc(-c2ccc3ncnc(Nc4ccc(OCc5ccccc5)c(Cl)c4)c3c2)o1` [GW574783B] was tested, and the “fold change in fluorescence relative to zaprinast alone” value was 0.7755 and 0.8833.

Same assay, conditions: 100 uM zaprinast stimulation; 10 min pretreatment; mean of two replicates; 0.23 h
In the case of `COc1ccc(C2=NC(c3ccc(Cl)cc3F)C(C(=O)Nc3ccc4[nH]ncc4c3)=C(C)N2)cn1` (stereo not drawn) [GSK534913A], the “fold change in fluorescence relative to zaprinast alone” value was 1.286. `Nc1n[nH]c2cnc(-c3ccccc3)cc12` [SB-642124-AAA] was tested, and the “fold change in fluorescence relative to zaprinast alone” value was 1.394. `NC(=O)c1ccc(Oc2nccc(-c3c(-c4ccc(F)cc4)ncn3C3CCNCC3)n2)cc1` [SB-242718] was tested, and the “fold change in fluorescence relative to zaprinast alone” value was 1.27. `Nc1cccc(-c2ccc3c(N)n[nH]c3c2)n1` [GSK2192730A] was tested, and the “fold change in fluorescence relative to zaprinast alone” value was 1.059. With `NC(=O)c1cc(-c2ccncc2)cc(-c2ccccc2)c1N` [GSK625137A] the “fold change in fluorescence relative to zaprinast alone” value was 1.053. For `NCc1ccc(-c2nc(-c3ccc(Cl)c(O)c3)c(-c3ccncc3)[nH]2)cc1` [SB-476429-A], the “fold change in fluorescence relative to zaprinast alone” value was 1.226. With `CC1=C(C(=O)Nc2ccc3[nH]ncc3c2)C(c2ccc(Cl)c(Cl)c2)CC(=O)N1` (stereo not drawn) [GSK299115A] the “fold change in fluorescence relative to zaprinast alone” value was 1.214. For `O=C(NCc1cccs1)c1cc(C(=O)c2c(Cl)cccc2Cl)c[nH]1` [GW823670X], the “fold change in fluorescence relative to zaprinast alone” value was 1.033. With `CSc1cccc2c(-c3ccncn3)c(-c3ccc(F)cc3)nn12` [GW514786X] the “fold change in fluorescence relative to zaprinast alone” value was 0.1155. `CN(C)CCOc1ccc(-c2cc(-c3cn[nH]c3-c3ccccn3)ccn2)cc1` [GW835314X] was tested, and the “fold change in fluorescence relative to zaprinast alone” value was 0.7262. `Oc1cccc(-c2nc(-c3ccccc3)[nH]c2-c2ccncc2)c1` [SB-610251-B] was tested, and the “fold change in fluorescence relative to zaprinast alone” value was 1.022. In the case of `CN(c1ccc(NC(=O)Nc2cc(C(F)(F)F)ccc2F)cc1)c1ccnc(Nc2ccc(S(N)(=O)=O)cc2)n1` [GW809893X], the “fold change in fluorescence relative to zaprinast alone” value was 0.2843. In the case of `Cc1ccc(NC(=O)Nc2ccc(Cl)c(C(F)(F)F)c2)cc1-c1ccc(C(=O)Nc2ccncc2)cc1` [GSK1398470A], the “fold change in fluorescence relative to zaprinast alone” value was 0.581. In the case of `Cc1nn2c(=O)cc(N3CCOC(C)C3)nc2n1Cc1cccc(Cl)c1Cl` (stereo not drawn) [GSK2373693A], the “fold change in fluorescence relative to zaprinast alone” value was 0.7316. For `C[C@@H](Oc1cc(-n2cnc3cc(-c4ccncc4)ccc32)sc1C(N)=O)c1ccccc1Cl` [GSK479719A], the “fold change in fluorescence relative to zaprinast alone” value was 1.296. With `COc1ccc(CNC(=O)NC2CCN(c3ccnc(Nc4ccc(F)cc4)n3)C2)cc1` (stereo not drawn) [GSK1379706A] the “fold change in fluorescence relative to zaprinast alone” value was 0.6471. `COc1cccc(CNC(=O)NC2CCN(c3ccnc(Nc4ccc(F)cc4)n3)C2)c1` (stereo not drawn) [GSK1379723A] was tested, and the “fold change in fluorescence relative to zaprinast alone” value was 0.5252. `NS(=O)(=O)c1cccc(-c2cc3ccncc3cc2OCc2ccccc2)c1` [GSK980961A] was tested, and the “fold change in fluorescence relative to zaprinast alone” value was 0.9595. In the case of `O=C1NC(=O)C(c2ccccc2Cl)=C1Nc1cccc(Cl)c1` [SB-342409], the “fold change in fluorescence relative to zaprinast alone” value was 0.95. `COc1cc2c(cc1Nc1nc(N3CCc4ccccc43)c3cc[nH]c3n1)N(C(=O)CN(C)C)CC2` [GSK2186269A] was tested, and the “fold change in fluorescence relative to zaprinast alone” value was 1.113. `Nc1nc(-c2ccc3c(N)n[nH]c3c2)cc(N2CCCCC2)n1` [GSK2228768A] was tested, and the “fold change in fluorescence relative to zaprinast alone” value was 0.9677. `O=C(Nc1n[nH]c2nc(-c3ccccc3)ccc12)C1CC1` [SB-708999] was tested, and the “fold change in fluorescence relative to zaprinast alone” value was 1.075. `CCn1c(-c2c(N)noc2C)nc2cnccc21` [SB-737856] was tested, and the “fold change in fluorescence relative to zaprinast alone” value was 0.9935. In the case of `COC(=O)C(Cc1ccccc1)NC(=O)NC1CCN(c2ccnc(Nc3ccc(F)cc3)n2)C1` (stereo not drawn) [GSK1379714A], the “fold change in fluorescence relative to zaprinast alone” value was 0.7659. `Cc1cccc(-c2n[nH]cc2-c2ccc3ncccc3n2)n1` [GW786460X] was tested, and the “fold change in fluorescence relative to zaprinast alone” value was 1.226. With `O=C(O[C@H]1CN[C@H](C#Cc2cc3ncnc(Nc4ccc(Cc5ccccc5)cc4)c3s2)C1)N1CCOCC1` [GSK238583A] the “fold change in fluorescence relative to zaprinast alone” value was 1.249. With `O=C(Nc1n[nH]c2nc(-c3cccs3)c(Br)cc12)C1CCCC1` [SB-743341] the “fold change in fluorescence relative to zaprinast alone” value was 0.9376. With `C[C@@H](Oc1cc(-n2cnc3cc(-c4ccnc(NCCS(C)(=O)=O)c4)ccc32)sc1C(N)=O)c1ccccc1Cl` [GSK907232A] the “fold change in fluorescence relative to zaprinast alone” value was 1.132. In the case of `Cc1[nH]nc2ccc(-c3cc(OC[C@@H](N)Cc4ccccc4)cnc3-c3ccoc3)cc12` [GSK507358A], the “fold change in fluorescence relative to zaprinast alone” value was 0.7404. In the case of `CC(C)Nc1cc(-c2ccc3c(N)n[nH]c3c2)nc(N)n1` [GSK2221681A], the “fold change in fluorescence relative to zaprinast alone” value was 1.173. In the case of `COC(=O)c1cncc(/C=C/c2c(C)cc(O)cc2C)c1` [GW406731X], the “fold change in fluorescence relative to zaprinast alone” value was 0.8759. With `O=c1[nH]cc(-c2ccc(N3CCOCC3)cc2)c2sc(-c3cn[nH]c3)cc12` [GSK2276055A] the “fold change in fluorescence relative to zaprinast alone” value was 0.8496. For `CS(=O)(=O)CCNCc1ccc(-c2ccc3ncnc(Nc4ccc(OCc5ccccc5)c(Br)c4)c3c2)o1` [GW580496A], the “fold change in fluorescence relative to zaprinast alone” value was 1.191. For `O=C(Nc1n[nH]c2nc(-c3ccc(O)cc3)c(Br)cc12)C1CC1` [SB-725317], the “fold change in fluorescence relative to zaprinast alone” value was 1.144. With `O=C(Nc1n[nH]c2cc(-c3ccsc3)ccc12)C1CC1` [SB-732932] the “fold change in fluorescence relative to zaprinast alone” value was 1.052. With `COC(=O)Nc1nc2cc(Oc3ccc(NC(=O)Nc4ccccc4)cc3)ccc2[nH]1` [GW694590A] the “fold change in fluorescence relative to zaprinast alone” value was 1.127. `Cc1occc1-c1nc(N)c(OC[C@@H](N)Cc2c[nH]c3ccccc23)cc1-c1cc2c(C)[nH]nc2cn1` [GSK1660450B] was tested, and the “fold change in fluorescence relative to zaprinast alone” value was 1.179. `Cc1ccc(C(=O)NC2CCCCC2)cc1-c1ccc(C(=O)NCC2CC2)cc1` [GW782907X] was tested, and the “fold change in fluorescence relative to zaprinast alone” value was 1.25. With `Cn1cc(-c2ccc3c(c2)CCN3C(=O)Cc2cccc(Cl)c2)c2c(N)ncnc21` [GSK2606590A] the “fold change in fluorescence relative to zaprinast alone” value was 1.488. `O=S(=O)(CCNCc1ccc(-c2ccc3ncnc(Nc4ccc(OCc5cccc(F)c5)c(Cl)c4)c3c2)o1)c1ccccc1` [GW633459A] was tested, and the “fold change in fluorescence relative to zaprinast alone” value was 1.016. For `Nc1n[nH]c2cc(-c3ccccn3)ccc12` [GSK2189892A], the “fold change in fluorescence relative to zaprinast alone” value was 1.03. `Clc1cccc(-c2nc(Nc3ccncc3)c3ccccc3n2)c1` [GW873004X] was tested, and the “fold change in fluorescence relative to zaprinast alone” value was 1.301. In the case of `CCCN1CCCC(c2ccc(Nc3nc(Nc4cc(F)ccc4C(N)=O)c4cc[nH]c4n3)c(OC)c2)C1` (stereo not drawn) [GSK1173862A], the “fold change in fluorescence relative to zaprinast alone” value was 1.98. `COC(=O)c1cccc(NC(=O)NC2CCN(c3ccnc(NCc4ccc(F)cc4)n3)CC2)c1` [GSK1379860A] was tested, and the “fold change in fluorescence relative to zaprinast alone” value was 0.8716. `CCCc1ccc(S(=O)(=O)NC2CCN(c3ccnc(Nc4ccc(F)cc4)n3)C2)cc1` (stereo not drawn) [GSK1379715A] was tested, and the “fold change in fluorescence relative to zaprinast alone” value was 0.5743. For `NCC(NC(=O)c1cc(-c2cccnc2)c(-c2ccnc3[nH]ccc23)s1)c1ccccc1` (stereo not drawn) [GSK1323434A], the “fold change in fluorescence relative to zaprinast alone” value was 0.997. `Nc1nc(-c2ccccn2)c(-c2ccc3ncccc3n2)s1` [GW693481X] was tested, and the “fold change in fluorescence relative to zaprinast alone” value was 1.166. `COc1cccc(-n2ncc3c(N/N=C/c4ccncc4)ncnc32)c1` [GW784752X] was tested, and the “fold change in fluorescence relative to zaprinast alone” value was 1.109. `NS(=O)(=O)c1ccc(N/N=C2\C(=O)Nc3cccc(CCc4ccncc4)c32)cc1` [GW352430A] was tested, and the “fold change in fluorescence relative to zaprinast alone” value was 1.031. With `N#Cc1cnc2cc(-c3cnc(CNCCN4CCOCC4)s3)ccc2c1Nc1ccc(Oc2ccccc2)cc1` [GW664114X] the “fold change in fluorescence relative to zaprinast alone” value was 1.528. `NCc1ccc(-n2c(-c3nonc3N)nc3cnccc32)cc1` [SB-750140] was tested, and the “fold change in fluorescence relative to zaprinast alone” value was 1.416. With `c1ccc(-c2n[nH]cc2-c2ccnc(-c3ccc(OCCN4CCOCC4)cc3)c2)nc1` [GW695874X] the “fold change in fluorescence relative to zaprinast alone” value was 1.104. For `COc1cc(C=NNc2ncnc3c2cnn3Cc2ccccc2)ccc1O` [GW643971X], the “fold change in fluorescence relative to zaprinast alone” value was 1.09. For `Cn1cc(C=C2C(=O)Nc3cccnc32)c2ccccc21` [GW441756X], the “fold change in fluorescence relative to zaprinast alone” value was 1.234. For `Fc1cccc(COc2ccc(Nc3ncnc4sc(-c5ccco5)cc34)cc2Cl)c1` [GSK969786A], the “fold change in fluorescence relative to zaprinast alone” value was 0.8987. With `c1ccc(-c2cnc3nccnn23)cc1` [AH20685XX] the “fold change in fluorescence relative to zaprinast alone” value was 1.296. For `COc1cccc2c(-c3ccncc3)c(-c3ccc(F)cc3)nn12` [GW468513X], the “fold change in fluorescence relative to zaprinast alone” value was 0.06975. In the case of `Cc1cccc(Nc2nc(N[C@H]3CCCC[C@H]3N)ncc2C(N)=O)c1` [GSK986310C], the “fold change in fluorescence relative to zaprinast alone” value was 1.388.

Same assay, conditions: 0.23 h, 10 µM
With `COc1cc(/C=N/Nc2ncnc3c2cnn3C(C)C)ccc1O` [GW644007X] the “% of control remaining” value was 1.177.
